Data from US20070134261A1, “Effectors of innate immunity” (priority 2001, published 2007).
Residues, ends and D or L forms follow the SMILES beside them.

Test system: primary human macrophages
Assay: Polynucleotide arrays of primary human macrophages treated with SEQ ID NO: 6 (Tables 27, 28)
Type: cell-based
Settings: 50 μg/ml, 4 h

CC[C@H](C)[C@H](NC(=O)[C@@H]1CCCN1C(=O)[C@H](CS)NC(=O)[C@H](CCCNC(=N)N)NC(=O)[C@@H](N)CC(C)C)C(=O)N[C@@H](C)C(=O)N1CCC[C@H]1C(=O)N[C@H](C(=O)N[C@H](C(=O)N1CCC[C@H]1C(=O)N[C@H](C(=O)N[C@@H](CS)C(=O)N[C@@H](CCCCN)C(=O)N[C@@H](CCCCN)C(=O)O)C(C)C)[C@@H](C)CC)C(C)C [SEQ ID NO: 6] (H-LRCPIAPVIPVCKK-OH; N-terminus and C-terminus assumed)
Ratio peptide treated:control, Unknown (A433612): 5.0
Ratio peptide treated:control, KIAA1278 protein (AB03104): 2.9
Ratio peptide treated:control, proteasome 26S subunit non-ATPase 13 (AB009398): 0.44
Ratio peptide treated:control, KIAA0532 protein (AB011104): 2.8
Ratio peptide treated:control, KIAA0592 protein (AB011164): 4.0
Ratio peptide treated:control, IL-1 receptor-like 1 (AB012701): 0.35
Ratio peptide treated:control, interferon alpha-inducible protein (AB019565): 0.35
Ratio peptide treated:control, KIAA0842 protein (AB020649): 0.13
Ratio peptide treated:control, KIAA0922 protein (AB023139): 2.1
Ratio peptide treated:control, KIAA1013 protein (AB023230): 3.4
Ratio peptide treated:control, protease, serine, 21 (AB031331): 2.0
Ratio peptide treated:control, hypothetical protein FLJ20689 (AB032978): 2.9
Ratio peptide treated:control, cofactor required for Sp1 transcriptional activation subunit 3 (AB033042): 0.23
Ratio peptide treated:control, pancreatic zymogen granule membrane associated protein (AB035541): 3.7
Ratio peptide treated:control, Unknown (AB037838): 0.14
Ratio peptide treated:control, CDC14 homolog A (AF000367): 3.8
Ratio peptide treated:control, TNF receptor superfamily, member 10b (AF016266): 0.37
Ratio peptide treated:control, TNF superfamily, member 15 (AF039390): 0.46
Ratio peptide treated:control, transcription factor 21 (AF047419): 5.4
Ratio peptide treated:control, proteasome subunit alpha type, 7 (AF054185): 0.40
Ratio peptide treated:control, Granulin (AF055008): 0.14
Ratio peptide treated:control, matrix metalloproteinase 23A (AF056200): 2.7
Ratio peptide treated:control, chromosome condensation 1-like (AF060219): 4.8
Ratio peptide treated:control, Unknown (AF068289): 2.8
Ratio peptide treated:control, histone fold proteinCHRAC17 (AF070640): 3.8
Ratio peptide treated:control, NADH dehydrogenase 1 alpha subcomplex, 10 (AF087661): 2.1
Ratio peptide treated:control, potassium voltage-gated channel KQT-like subfamily member 4 (AF105202): 3.9
Ratio peptide treated:control, FYN-binding protein (AF198052): 3.3
Ratio peptide treated:control, c-Cbl-interacting protein (AF230904): 2.4
Ratio peptide treated:control, hypothetical protein FLJ20070 (AK000077): 3.4
Ratio peptide treated:control, hypothetical protein FLJ20495 (AK000502): 3.5
Ratio peptide treated:control, Unknown (AK001843): 8.2
Ratio peptide treated:control, peroxisome proliferative activated receptor delta (AL022721): 0.46
Ratio peptide treated:control, proteasome 26S subunit non-ATPase, 10 (AL031177): 0.32
Ratio peptide treated:control, Unknown (AL031864): 2.9
Ratio peptide treated:control, Unknown (AL049263): 0.06
Ratio peptide treated:control, DKFZP586B2420 protein (AL050143): 5.9
Ratio peptide treated:control, Unknown (AL050370): 0.38
Ratio peptide treated:control, Unknown (AL109678): 5.6
Ratio peptide treated:control, Unknown (AL117643): 2.7
Ratio peptide treated:control, eukaryotic translation initiation factor 4A, isoform 2 (AL137681): 3.4
Ratio peptide treated:control, Unknown (AL137715): 4.4
Ratio peptide treated:control, proteasome subunit alpha type, 4 (D00763): 0.49
Ratio peptide treated:control, proteasome 26S subunit ATPase, 2 (D11094): 0.49
Ratio peptide treated:control, defender against cell death 1 (D15057): 0.46
Ratio peptide treated:control, proteasome subunit beta type, 4 (D26600): 0.29
Ratio peptide treated:control, proteasome subunit beta type, 5 (D29011): 0.33
Ratio peptide treated:control, proteasome 26S subunit non-ATPase 8 (D38047): 0.28
Ratio peptide treated:control, proteasome subunit beta type 7 (D38048): 0.22
Ratio peptide treated:control, KIAA0152 gene product (D63486): 0.17
Ratio peptide treated:control, Cryptochrome 1 (D83702): 3.8
Ratio peptide treated:control, TGFB1-induced anti-apoptotic factor 1 (D86970): 0.19
Ratio peptide treated:control, MAP kinase kinase 3 (D87116): 0.37
Ratio peptide treated:control, proteasome 26S subunit ATPase, 1 (L02426): 0.49
Ratio peptide treated:control, MAP kinase kinase 1 (L11284): 2.4
Ratio peptide treated:control, MAP kinase 14 (L35263): 2.2
Ratio peptide treated:control, interferon receptor 2 (L42243): 2.5
Ratio peptide treated:control, IL-1 receptor-associated kinase 1 (L76191): 0.45
Ratio peptide treated:control, LINE retrotransposable element 1 (M22333): 4.0
Ratio peptide treated:control, TNF receptor superfamily member 1B (M32315): 0.29
Ratio peptide treated:control, proteasome 26S subunit, ATPase, 3 (M34079): 0.35
Ratio peptide treated:control, proteasome subunit beta type, 6 (M34079): 0.38
Ratio peptide treated:control, lymphocyte antigen (M38056): 3.2
Ratio peptide treated:control, H1 histone family, member 4 (M60748): 3.0
Ratio peptide treated:control, Cathepsin D (M63138): 0.36
Ratio peptide treated:control, protein kinase, cAMP-dependent, regulatory, type I, beta (M65066): 2.9
Ratio peptide treated:control, TGF, beta-induced, (M77349): 0.37
Ratio peptide treated:control, S100 calcium-binding protein A4 (M80563): 0.31
Ratio peptide treated:control, cathepsin E (M84424): 2.7
Ratio peptide treated:control, actinin, alpha 3 (M86407): 6.9
Ratio peptide treated:control, interferon regulatory factor 2 (NM 002199): 2.0
Ratio peptide treated:control, calumenin (NM_001219): 2.9
Ratio peptide treated:control, glutathione peroxidase 3 (NM_002084): 0.15
Ratio peptide treated:control, LPS-induced TNF-alpha factor (NM_004862): 0.41
Ratio peptide treated:control, bone morphogenetic protein 1 (NM_006129): 2.1
Ratio peptide treated:control, MAP kinase kinase kinase 2 (NM_006609): 0.32
Ratio peptide treated:control, SDF receptor 1 (NM_012428): 0.35
Ratio peptide treated:control, TERF1 (TRF1)-interacting nuclear factor 2 (NM_012461): 4.2
Ratio peptide treated:control, nuclear receptor binding protein (NM_013392): 0.38
Ratio peptide treated:control, cyclin-dependent kinase inhibitor 1B (S76988): 2.2
Ratio peptide treated:control, POU domain, class 4, transcription factor 2 (U06233): 2.8
Ratio peptide treated:control, MAP kinase kinase kinase kinase 2 (U07349): 0.46
Ratio peptide treated:control, MAP kinase-activated protein kinase 2 (U12779): 0.34
Ratio peptide treated:control, caspase 3 (U13737): 0.35
Ratio peptide treated:control, MAP kinase kinase 5 (U25265): 0.44
Ratio peptide treated:control, E2F transcription factor 5, p130-binding (U31556): 3.5
Ratio peptide treated:control, TNF superfamily member 10 (U37518): 0.46
Ratio peptide treated:control, integrin-linked kinase (U40282): 0.13
Ratio peptide treated:control, guanine nucleotide binding protein, gamma transducing activity polypeptide 1 (U41492): 3.3
Ratio peptide treated:control, mucosal vascular addressin cell adhesion molecule 1 (U43628): 3.2
Ratio peptide treated:control, 1-acylglycerol-3-phosphate O-acyltransferase 1 (U56417): 4.0
Ratio peptide treated:control, caspase 7 (U67319): 0.49
Ratio peptide treated:control, apoptosis inhibitor 4 (U75285): 4.2
Ratio peptide treated:control, TNF receptor superfamily, member 14 (U81232): 0.26
Ratio peptide treated:control, bone morphogenetic protein receptor, type IB (U89326): 2.1
Ratio peptide treated:control, transferrin receptor (X01060): 0.42
Ratio peptide treated:control, protease inhibitor 1 alpha-1-antitrypsin (X01683): 0.40
Ratio peptide treated:control, Cathepsin L (X12451): 0.44
Ratio peptide treated:control, cytochrome c oxidase subunit Vic (X13238): 0.30
Ratio peptide treated:control, cathepsin H (X16832): 0.47
Ratio peptide treated:control, protein kinase C, alpha (X52479): 2.4
Ratio peptide treated:control, glycoprotein IX (X52997): 3.4
Ratio peptide treated:control, glypican 1 (X54232): 3.2
Ratio peptide treated:control, jun D proto-oncogene (X56681): 0.35
Ratio peptide treated:control, proteasome subunit alpha type, 6 (X59417): 0.31
Ratio peptide treated:control, Sp3 transcription factor (X68560): 3.6
Ratio peptide treated:control, Vacuolar proton-ATPase, subunit D; V-ATPase, subunit D (X71490): 4.0
Ratio peptide treated:control, chymotrypsin-like protease (X71877): 2.9
Ratio peptide treated:control, phosphorylase kinase alpha 1 (X73874): 7.1
Ratio peptide treated:control, zinc finger protein 266 (X78924): 2.2
Ratio peptide treated:control, ribosomal protein L11 (X79234): 0.32
Ratio peptide treated:control, translational inhibitor protein p14.5 (X95384): 3.0
Ratio peptide treated:control, c-fos induced growth factor (Y12864): 2.3
Ratio peptide treated:control, disintegrin protease (Y13323): 0.21
Ratio peptide treated:control, matrix metalloproteinase 7 (Z11887): 0.49
Ratio peptide treated:control, proteoglycan 2 (Z26248): 9.3
Ratio peptide treated:control, matrix metalloproteinase 14 (Z48481): 0.32
Ratio peptide treated:control, POU domain, class 2, associating factor 1 (Z49194): 2.8
Ratio peptide treated:control, protease inhibitor 12 (Z81326): 0.48
